Assay results: ChEMBL document CHEMBL1201862, “PubChem BioAssay data set” (2004)
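Exposure lasted 48 hours, with cells grown in 96-well plates and compounds tested at five concentrations. Abbreviation: GI50, concentration required for 50% inhibition of growth.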 Calls of active or inactive are those of the source. No stated cut-off is given here; in the data, active = GI50 up to about 1.1 µM and inactive = higher. Non-standard residues stand in square brackets, D forms with d. Residues, ends and D or L forms follow the SMILES beside them.

Assays:
Assay in all cases: NCI-60 cell line screen, 48 h
NCI-H23 = test system: NCI-H23
OVCAR-8 = test system: OVCAR-8
MCF7 = test system: MCF7
EKVX = test system: EKVX
SNB-75 = test system: SNB-75
MOLT-4 = test system: MOLT-4
A549 = test system: A549
NCI/ADR-RES = test system: NCI/ADR-RES
DU-145 = test system: DU-145
Hs-578T = test system: Hs-578T
NCI-H522 = test system: NCI-H522
OVCAR-5 = test system: OVCAR-5
CAKI-1 = test system: CAKI-1
SW-620 = test system: SW-620
CCRF-CEM = test system: CCRF-CEM
U-251 = test system: U-251
M14 = test system: M14
SK-MEL-2 = test system: SK-MEL-2
NCI-H226 = test system: NCI-H226

| SMILES | GI50 (NCI-H23) | GI50 (OVCAR-8) | GI50 (MCF7) | GI50 (EKVX) | GI50 (SNB-75) | GI50 (MOLT-4) | GI50 (A549) | GI50 (NCI/ADR-RES) | GI50 (DU-145) | GI50 (Hs-578T) | GI50 (NCI-H522) | GI50 (OVCAR-5) | GI50 (CAKI-1) | GI50 (SW-620) | GI50 (CCRF-CEM) | GI50 (U-251) | GI50 (M14) | GI50 (SK-MEL-2) | GI50 (NCI-H226) |
| --- | --- | --- | --- | --- | --- | --- | --- | --- | --- | --- | --- | --- | --- | --- | --- | --- | --- | --- | --- |
| CC(C)OCC(O)COc1ccc2ccc(=O)oc2c1 (configuration not stated) | > 100 µM (inactive) | > 100 µM (inactive) | > 100 µM (inactive) | > 100 µM (inactive) | > 100 µM (inactive) | > 100 µM (inactive) | > 100 µM (inactive) | > 100 µM (inactive) | > 100 µM (inactive) | > 100 µM (inactive) | > 100 µM (inactive) | > 100 µM (inactive) | > 100 µM (inactive) | > 100 µM (inactive) | > 100 µM (inactive) | > 100 µM (inactive) | > 100 µM (inactive) |  |  |
| COc1ccc(NC(=O)CC(=O)N2N=C(C)C(/N=N/c3ccc(C(=O)O)cc3)C2=O)cc1 (configuration not stated) | > 100 µM (inactive) | > 100 µM (inactive) | > 100 µM (inactive) | > 100 µM (inactive) | 77.3 µM (inactive) |  | > 100 µM (inactive) | > 100 µM (inactive) | > 100 µM (inactive) | > 100 µM (inactive) | > 100 µM (inactive) | > 100 µM (inactive) | > 100 µM (inactive) | > 100 µM (inactive) | > 100 µM (inactive) | > 100 µM (inactive) | > 100 µM (inactive) | > 100 µM (inactive) |  |
| O=C(O)CNn1c(SCC(=O)O)nnc(/C=C/c2c(O)ccc3ccccc23)c1=O | 17.1 µM (inactive) | 3.79 µM (inactive) | 24 µM (inactive) | 14.3 µM (inactive) |  |  | 44.2 µM (inactive) | 15 µM (inactive) | 3.16 µM (inactive) | 12.8 µM (inactive) | 29.8 µM (inactive) | 28.5 µM (inactive) | 29.5 µM (inactive) | 44.9 µM (inactive) | 3.57 µM (inactive) | 35.3 µM (inactive) | 17.1 µM (inactive) | 61.8 µM (inactive) |  |
| O=C(CN1CCCCC1)c1ccc2c(c1)Sc1ccccc1O2 | 13.1 µM (inactive) | 16.9 µM (inactive) | 15.9 µM (inactive) | 17.1 µM (inactive) | 11.6 µM (inactive) | 23.1 µM (inactive) | 14.2 µM (inactive) | 16.7 µM (inactive) | 20.9 µM (inactive) | 5.18 µM (inactive) |  | 15 µM (inactive) | 18.3 µM (inactive) | 17.8 µM (inactive) | 12.6 µM (inactive) | 15.5 µM (inactive) | 14.1 µM (inactive) | 18.7 µM (inactive) | 14.2 µM (inactive) |
| CCN(CC)CCOCCn1c2c(c3ccccc31)CCCC2 | 35.8 µM (inactive) | 33.7 µM (inactive) | 18.2 µM (inactive) | 40.2 µM (inactive) | 34.8 µM (inactive) | 15.8 µM (inactive) | 23.9 µM (inactive) | 12.7 µM (inactive) | 30.9 µM (inactive) | 20 µM (inactive) |  | 23.3 µM (inactive) |  | 17.1 µM (inactive) | 18.8 µM (inactive) | 17.2 µM (inactive) | 16.9 µM (inactive) | 15.7 µM (inactive) | 26.4 µM (inactive) |
| COC(=O)C1=C(C)NC(C)=C([N+](=O)[O-])C1c1cccc(N=O)c1 (configuration not stated) | 18.5 µM (inactive) | 16.3 µM (inactive) | 17.4 µM (inactive) | 21.1 µM (inactive) |  | 3.18 µM (inactive) | 18.9 µM (inactive) | 21 µM (inactive) | 15.2 µM (inactive) | 15.2 µM (inactive) | 1.66 µM (inactive) | 16.9 µM (inactive) | 7.96 µM (inactive) | 3.58 µM (inactive) | 4.83 µM (inactive) | 18 µM (inactive) | 13.1 µM (inactive) | 18.2 µM (inactive) | 22 µM (inactive) |
| O=C(CCc1cccc(O)c1)NCCc1cccc(OCc2ccccc2)c1 | 18.9 µM (inactive) | 26.7 µM (inactive) | 18.8 µM (inactive) | 21.5 µM (inactive) |  | 11 µM (inactive) | 28.1 µM (inactive) | 18.3 µM (inactive) | 27.5 µM (inactive) | 16.4 µM (inactive) | 17.1 µM (inactive) | 24.7 µM (inactive) | 26.9 µM (inactive) | 21.3 µM (inactive) | 12.6 µM (inactive) | 16.5 µM (inactive) | 16.2 µM (inactive) | 15.6 µM (inactive) | 11.4 µM (inactive) |
| CCCN(CCC)C(=S)N/N=C/c1ccccn1 | < 0.01 µM (active) | < 0.01 µM (active) | < 0.01 µM (active) | 0.046 µM (active) | 0.0586 µM (active) | < 0.01 µM (active) | < 0.0138 µM (active) | < 0.01 µM (active) | 0.143 µM (active) | 2.96 µM (inactive) | < 0.01 µM (active) | < 0.0482 µM (active) | 0.0169 µM (active) | < 0.014 µM (active) | < 0.01 µM (active) | < 0.0138 µM (active) | < 0.0125 µM (active) | < 0.0385 µM (active) |  |
| CC(C)COP(C)(=O)C(N)(C(F)(F)F)C(F)(F)F (configuration not stated) | > 100 µM (inactive) | > 100 µM (inactive) | > 100 µM (inactive) | > 100 µM (inactive) | 7.78 µM (inactive) | > 100 µM (inactive) | > 100 µM (inactive) | > 100 µM (inactive) | > 100 µM (inactive) | > 100 µM (inactive) |  | > 100 µM (inactive) | > 100 µM (inactive) | > 100 µM (inactive) | 88.1 µM (inactive) | > 100 µM (inactive) | > 100 µM (inactive) | > 100 µM (inactive) | > 100 µM (inactive) |
| O=Cc1ccc2ccocc1-2 | > 100 µM (inactive) | > 100 µM (inactive) | > 100 µM (inactive) | > 100 µM (inactive) |  | > 100 µM (inactive) | > 100 µM (inactive) | > 100 µM (inactive) | > 100 µM (inactive) | > 100 µM (inactive) | > 100 µM (inactive) | > 100 µM (inactive) | > 100 µM (inactive) | > 100 µM (inactive) | > 100 µM (inactive) | > 100 µM (inactive) | > 100 µM (inactive) | > 100 µM (inactive) | > 100 µM (inactive) |
| CSCC[C@H](NC(=O)[C@@H](N)CC(N)=O)C(=O)N[C@@H](Cc1c[nH]c2ccccc12)C(=O)N[C@@H](CCC(N)=O)C(=O)N[C@@H](CCC(=O)O)C(=O)N[C@H](C(=O)NCC(=O)N[C@@H](CCCCN)C(=O)N[C@H](C)C(=O)O)C(C)C (H-NMWQEVGK[dA]-OH) | > 100 µM (inactive) | > 100 µM (inactive) | > 100 µM (inactive) | > 100 µM (inactive) | > 100 µM (inactive) | > 100 µM (inactive) | > 100 µM (inactive) | > 100 µM (inactive) | > 100 µM (inactive) | > 100 µM (inactive) |  | > 100 µM (inactive) | > 100 µM (inactive) | > 100 µM (inactive) | > 100 µM (inactive) | > 100 µM (inactive) | > 100 µM (inactive) |  | > 100 µM (inactive) |
